Activity calls are given as the source filed them. No cut-off for these calls is given here.
Test system: not listed separately
Assay: Anti-tumor activity against mouse lewis lung carcinoma cells allografted in C57BL6 mouse assessed as reduction in tumor growth at 5 mg/kg, ig for 21 days relative to control
Assay type: functional
Conditions: po, 504 h, time 21 day, read-out: TGI

Structure (SMILES) | inhibition in vivo at 5 mg/kg [%]
Cc1c(COc2ccc(CN[C@@H](CO)C(=O)O)c(OCc3cccc(C#N)c3)c2)cccc1-c1ccccc1 | 17.8

Molecular target: Programmed cell death protein 1/Programmed cell death 1 ligand 1 (Homo sapiens, UniProt Q15116+Q9NZQ7)
Sequence (Q15116 whole entry): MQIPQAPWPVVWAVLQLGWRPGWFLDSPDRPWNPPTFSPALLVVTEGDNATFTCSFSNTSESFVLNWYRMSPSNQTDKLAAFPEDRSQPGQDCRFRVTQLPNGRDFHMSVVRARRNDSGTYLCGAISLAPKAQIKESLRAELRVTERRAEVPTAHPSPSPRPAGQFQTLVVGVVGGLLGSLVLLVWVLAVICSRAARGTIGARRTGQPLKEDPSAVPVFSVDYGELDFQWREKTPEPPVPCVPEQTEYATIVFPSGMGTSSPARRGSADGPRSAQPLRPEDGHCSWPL
Sequence (Q9NZQ7 whole entry): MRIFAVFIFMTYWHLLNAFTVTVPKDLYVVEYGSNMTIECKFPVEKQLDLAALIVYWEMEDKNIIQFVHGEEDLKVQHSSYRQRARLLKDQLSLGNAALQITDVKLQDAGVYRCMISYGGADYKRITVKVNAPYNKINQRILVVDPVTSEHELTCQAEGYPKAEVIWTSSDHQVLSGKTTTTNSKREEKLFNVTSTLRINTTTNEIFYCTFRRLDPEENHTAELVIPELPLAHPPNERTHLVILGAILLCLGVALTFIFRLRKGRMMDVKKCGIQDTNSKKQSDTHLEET
Assay: Inhibition of human PD-1/PD-L1 interaction assessed as disruption of PD-1/PD-L1 complex incubated for 2 hrs by Tag-1 Eu3+ and anti-Tag2-XL665 based HTRF assay
Assay type: protein-complex assay
Conditions: not given

Structure (SMILES) | IC50 [nM]
Cc1c(COc2cc(OCc3cccc(C#N)c3)c(CNCCO)cc2[N+](=O)[O-])cccc1-c1ccccc1 | 3.59
Cc1c(COc2cc(OCc3cccc(C#N)c3)c(CN3CCCC[C@H]3C(=O)N3CCC[C@H]3C(=O)O)cc2[N+](=O)[O-])cccc1-c1ccccc1 | 4.31
Cc1c(COc2ccc(CN(C)CC(=O)O)cc2[N+](=O)[O-])cccc1-c1ccccc1 | 20.9
Cc1c(COc2ccc(CN[C@H](C(=O)O)[C@@H](C)O)cc2[N+](=O)[O-])cccc1-c1ccccc1 | 61
Cc1c(COc2ccc(CN3CCC[C@H]3C(=O)N[C@H](C(=O)O)[C@@H](C)O)cc2[N+](=O)[O-])cccc1-c1ccccc1 | 55.6
Cc1c(COc2ccc(CN(CCO)CCO)cc2[N+](=O)[O-])cccc1-c1ccccc1 | 21.4
Cc1c(COc2ccc(CN3CCC[C@H]3C(=O)N[C@@H](C)CO)cc2[N+](=O)[O-])cccc1-c1ccccc1 | 61.8
Cc1c(COc2ccc(CNCCO)cc2[N+](=O)[O-])cccc1-c1ccccc1 | 11.8
Cc1c(COc2ccc(CNC(C)(CO)CO)cc2[N+](=O)[O-])cccc1-c1ccccc1 | 92.1
Cc1c(COc2cc(OCc3ccnc(C#N)c3)c(CN[C@H](C(=O)O)[C@@H](C)O)cc2[N+](=O)[O-])cccc1-c1ccccc1 | 10.2
CC(=O)NCCNC(=O)[C@@H]1CCCN1Cc1ccc(OCc2cccc(-c3ccccc3)c2C)c([N+](=O)[O-])c1 | 56.4
Cc1c(COc2ccc(CN3CCC[C@H]3C(=O)N[C@@H](CO)C(=O)O)cc2[N+](=O)[O-])cccc1-c1ccccc1 | 73.2
Cc1c(COc2ccc(CN3CCCC[C@H]3C(=O)O)cc2[N+](=O)[O-])cccc1-c1ccccc1 | 8.78
Cc1c(COc2ccc(CN3CCC[C@H]3C(=O)NCCO)cc2[N+](=O)[O-])cccc1-c1ccccc1 | 55.7
Cc1c(COc2ccc(CN3CCCC[C@H]3C(=O)N[C@H](C(=O)O)[C@@H](C)O)cc2[N+](=O)[O-])cccc1-c1ccccc1 | 26.7
Cc1c(COc2ccc(CNCCC(=O)O)cc2[N+](=O)[O-])cccc1-c1ccccc1 | 39.5
CC(=O)NCCNCc1ccc(OCc2cccc(-c3ccccc3)c2C)c([N+](=O)[O-])c1 | 13.1
CCC(CO)(CO)NC(=O)[C@@H]1CCCN1Cc1ccc(OCc2cccc(-c3ccccc3)c2C)c([N+](=O)[O-])c1 | 82.3
Cc1c(COc2ccc(CNCCN(C)C)cc2[N+](=O)[O-])cccc1-c1ccccc1 | 37.7
Cc1c(COc2ccc(CN3CCC[C@H]3C(=O)NCC(C)(C)O)cc2[N+](=O)[O-])cccc1-c1ccccc1 | 71.2
Cc1c(COc2cc(OCc3ccnc(C#N)c3)c(CN[C@@H](CO)C(=O)O)cc2[N+](=O)[O-])cccc1-c1ccccc1 | 9.33
Cc1c(COc2ccc(CN3CCC[C@H]3C(=O)O)cc2[N+](=O)[O-])cccc1-c1ccccc1 | 45.2
C[C@@H](O)[C@H](NCc1ccc(OCc2cccc(-c3ccccc3)c2Br)c([N+](=O)[O-])c1)C(=O)O | 353
Cc1c(COc2ccc(CNCc3ccoc3)cc2[N+](=O)[O-])cccc1-c1ccccc1 | 87.4

Structure (SMILES) | IC50 [nM]
Cc1c(COc2cc(OCc3cccc(C#N)c3)c(CN(C)CC(=O)O)cc2[N+](=O)[O-])cccc1-c1ccccc1 | 7.44
CSCC[C@H](NCc1ccc(OCc2cccc(-c3ccccc3)c2C)c([N+](=O)[O-])c1)C(=O)O | 17.8
Cc1c(COc2ccc(CN3CCC[C@H]3C(=O)NC(C)(CO)CO)cc2[N+](=O)[O-])cccc1-c1ccccc1 | 49.4
Cc1c(COc2cc(OCc3cccc(C#N)c3)c(CN3CCC[C@H]3C(=O)O)cc2[N+](=O)[O-])cccc1-c1ccccc1 | 22.7
Cc1c(COc2cc(OCc3cccc(C#N)c3)c(CN3CCCC[C@H]3C(=O)O)cc2[N+](=O)[O-])cccc1-c1ccccc1 | 5.65
Cc1c(COc2cc(OCc3cccnc3)c(CN[C@H](C(=O)O)[C@@H](C)O)cc2[N+](=O)[O-])cccc1-c1ccccc1 | 15.5
Cc1c(COc2cc(OCc3cccnc3)c(CN[C@@H](CO)C(=O)O)cc2[N+](=O)[O-])cccc1-c1ccccc1 | 17.9
Cc1c(COc2cc(OCc3cccc(C#N)c3)c(CN[C@@H](CO)C(=O)O)cc2[N+](=O)[O-])cccc1-c1ccccc1 | 13
Cc1c(COc2cc(OCc3cccnc3)c(CN3CCCC[C@H]3C(=O)O)cc2[N+](=O)[O-])cccc1-c1ccccc1 | 8.75
Cc1c(COc2ccc(CN3CCCC[C@H]3C(=O)NCC(C)(C)O)cc2[N+](=O)[O-])cccc1-c1ccccc1 | 12.1
Cc1c(COc2ccc(CN3CCCC[C@H]3C(=O)N[C@@H](CO)C(=O)O)cc2[N+](=O)[O-])cccc1-c1ccccc1 | 12.4
Cc1c(COc2ccc(CNCCCNC(CO)CO)cc2[N+](=O)[O-])cccc1-c1ccccc1 | 28.7
Cc1c(COc2ccc(CN[C@@H](CO)C(=O)O)cc2[N+](=O)[O-])cccc1-c1ccccc1 | 27.7
Cc1c(COc2cc(OCc3cccc(C#N)c3)c(CNC(CO)CO)cc2[N+](=O)[O-])cccc1-c1ccccc1 | 7.8
Cc1c(COc2ccc(CN3CCC[C@H]3C(=O)N(C)CC(O)CO)cc2[N+](=O)[O-])cccc1-c1ccccc1 (stereo partly specified) | 9.98
Cc1c(COc2ccc(CN3CCCC[C@H]3C(=O)N[C@@H](C)C(=O)O)cc2[N+](=O)[O-])cccc1-c1ccccc1 | 12.7
Cc1c(COc2cc(OCc3ccnc(C#N)c3)c(CN3CCCC[C@H]3C(=O)O)cc2[N+](=O)[O-])cccc1-c1ccccc1 | 10.2
CC(=O)NCCNCc1cc([N+](=O)[O-])c(OCc2cccc(-c3ccccc3)c2C)cc1OCc1cccc(C#N)c1 | 8.11
Cc1c(COc2cc(OCc3cccc(C#N)c3)c(CN3CCCC[C@H]3C(=O)N[C@@H](CO)C(=O)O)cc2[N+](=O)[O-])cccc1-c1ccccc1 | 8.01
Cc1c(COc2ccc(CNC(CO)CO)cc2[N+](=O)[O-])cccc1-c1ccccc1 | 8.91
Cc1c(COc2ccc(CN3CCCC[C@H]3C(=O)N3CCC[C@H]3C(=O)O)cc2[N+](=O)[O-])cccc1-c1ccccc1 | 14.8
Cc1c(COc2cc(OCc3cccc(C#N)c3)c(CN3CCCC[C@H]3C(=O)NCC(C)(C)O)cc2[N+](=O)[O-])cccc1-c1ccccc1 | 4.77
Cc1c(COc2ccc(CNCC(C)(C)O)cc2[N+](=O)[O-])cccc1-c1ccccc1 | 46.7
Cc1c(COc2ccc(CN[C@@H](CO)C(=O)O)c(OCc3cccc(C#N)c3)c2)cccc1-c1ccccc1 | 30.2

Test system: Mus musculus
Assay: Toxicity in C57BL6 mouse allografted with mouse lewis lung carcinoma cells assessed as reduction body weight at 5 mg/kg, ig for 21 days
Assay type: organism-based
Conditions: in vivo, po, 504 h, time 21 day

Structure (SMILES) | Activity
Cc1c(COc2ccc(CN[C@@H](CO)C(=O)O)c(OCc3cccc(C#N)c3)c2)cccc1-c1ccccc1 | Non-Toxic

Test system: Mus musculus
Assay: Upregulation of IFNgamma protein expression in C57BL6 mouse serum allografted with mouse lewis lung carcinoma cells at 5 mg/kg, ig for 21 days by ELISA
Assay type: functional, organism-based
Conditions: time 21.0 day

Structure (SMILES) | Activity
Cc1c(COc2ccc(CN[C@@H](CO)C(=O)O)c(OCc3cccc(C#N)c3)c2)cccc1-c1ccccc1 | Active

From ChEMBL document CHEMBL5033993, “Design, Synthesis, and Evaluation of o-(Biphenyl-3-ylmethoxy)nitrophenyl Derivatives as PD-1/PD-L1 Inhibitors with Potent Anticancer Efficacy In Vivo” (J Med Chem, 2021)
